# Results reported in a melting point compilation (Tetko et al.; mined from patent text by program, amines drawn as free bases though some values may be those of a salt).
row,melting point,SMILES
1,62 to 68 °C,CC(C)(C)c1ccccc1NC(=O)OCC1(COC(=O)Nc2ccccc2C(C)(C)C)CSc2ccccc2C1=O
2,203 to 206 °C,COc1ccc2c3c(c(=O)oc2c1)CN(Cc1ccc(C(F)(F)F)cc1)CC3
3,154 °C,COc1ccc(S(=O)(=O)C2(C(=O)O)CCN(Cc3ccc(F)cc3)CC2)cc1
4,159 to 160 °C,Cc1nc(C)c(-c2ccnc(Nc3ccc(N4CCCCC4)c(C)c3)n2)s1
5,145 to 146 °C,CC(C)=CCc1cc(-c2oc3c(CC=C(C)C)c(O)cc(O)c3c(=O)c2O)ccc1O
6,48 to 50 °C,CC1(C)OCCCOc2c[nH]cc2OCCCOC1(C)C
7,100 to 104 °C,CCN(CC)CCCNc1ncc2cc(-c3c(Cl)cccc3Cl)c(N=CN(C)C)nc2n1
8,220 °C,O=C(CCCCl)Nc1n[nH]c2cc(Cl)ccc12
9,176 to 178 °C,CCOCc1nc2c(N)nc3ccccc3c2n1CCCCCS(N)(=O)=O
10,224 to 225 °C,Nn1cc(Cl)c(=O)[nH]c1=O
11,113 to 115 °C,COc1cc(-c2cn(C3CCCC3)c3ncnc(N)c23)ccc1NS(=O)(=O)c1ccccc1
12,99 to 102 °C,CNC(=O)C1SCOC(=NO)S1 (centres undefined)
13,109 to 111 °C,CCCSc1cc(S(N)(=O)=O)c(N)cc1Cl
14,77 to 89 °C,CN(CCC(Oc1ccc(C(=O)c2ccc3ccccc3c2)cc1)c1ccccc1)CC(=O)O (centres undefined)
15,161 to 164 °C,CC(=O)OC1=CCc2c(Oc3ccc(NC(=O)c4ccc(Cl)c(Cl)c4)cn3)cccc21
16,174 °C,O=[N+]([O-])c1ccc(SSc2nccc(O)n2)c(C(Cl)(Cl)Cl)c1
17,158 to 160 °C,O=C(NC1CCCCC1)ON1C(=O)CCC1=O
18,97 to 104 °C,COc1ccc(C2(c3ccc(OC)cc3)CC2(C)Br)cc1 (centres undefined)
19,128 to 130 °C,O=C(Cc1ccncc1)[N+]1([O-])CCC(=C2c3ccc(Cl)cc3CCc3cccnc32)CC1 (centres undefined)
20,185 to 187 °C,CN(C)C(=O)c1nnc(S)o1
21,258 °C,CC1(C)OCC(COc2cc(O)nc(N)n2)O1 (centres undefined)
22,172 to 173 °C,CC(C)(C)Sc1ccc(Cn2c(CC(C)(C)C(=O)O)c(SC(C)(C)C)c3cc(OCc4ccc5ccccc5n4)ccc32)cc1
23,72 to 75 °C,CCOc1cc(OC)cc(OP(=O)(O)O)c1C(=O)C=Cc1ccc(OC)cc1
24,101 to 102 °C,OCc1cccc(-c2ncc(OCCN3CCOCC3)cn2)c1

row,melting point,SMILES
1,231 °C,CC(C)(C)OC(=O)c1ccc(NC2CCc3cc4nc(COC(=O)C(C)(C)C)[nH]c(=O)c4cc32)cc1 (racemic)
2,> 330 °C,O=C1Cc2c([nH]c3ccccc23)-c2ncccc2N1
3,82 to 84 °C,CCOC(=O)c1c(C(F)(F)F)nc(C)c(-c2ccccc2)c1O
4,61 to 62 °C,CCOC(=O)CCCSC(=S)NCc1ccc(Cl)cc1
5,298 to 299 °C,O=c1c2c(Cc3ccccc3)n[nH]c2c2cccnc2n1-c1cccc(F)c1
6,109 to 113 °C,CN(C)c1ccc(NC(=O)N(Cc2ccccc2)C[C@@H]2CCCC[C@H]2CN(Cc2ccccc2)C(=O)Nc2ccc(N(C)C)cc2)cc1 (relative stereo)
7,139 to 141 °C,Cc1cc(C)c(Nc2nc(C)ccc2S(=O)(=O)c2ccc(F)c(Cl)c2)c(C)c1
8,120 to 122 °C,CCOC(=O)Cc1c(-c2ccc(Cl)cc2)nn(-c2ccccc2)c1-c1ccc(Cl)cc1
9,136 to 138 °C,COC(=NC(=O)c1ccc(F)cc1)N1Cc2ccccc2-c2ccccc2C1
10,362 to 363 °C,COc1ccccc1-n1c(=O)[nH]c2c(C(N)=O)nc(-c3ccc(O)cc3)nc21
11,214 to 215 °C,Nc1nc2ccccc2c2c1ncn2CCCCNC(=O)c1ccnc2ccccc12
12,199 to 201 °C,CC(=O)c1cc2cc(O)c(Cl)c(Cl)c2s1
13,123 to 127 °C,CCC(=O)Cc1ccc(C(=O)Nc2ccc3cc(C(C)N4CCCC4)cnc3c2C)cc1 (centres undefined)
14,234 to 238 °C,Oc1ccc(Sc2cccc(O)n2)cc1
15,178 to 179 °C,O=C(NCCOc1ccc(CC(Oc2ccccc2)C(=O)O)cc1[N+](=O)[O-])c1ccc(-c2ccccn2)cc1 (centres undefined)
16,76 to 79 °C,CC(=O)CN1CCc2c(c(=O)oc3cc(C(C)C)ccc23)C1
17,69 to 70 °C,CCOC(=O)CCc1cn(Cc2ccc(OCc3cn4c(Cl)cccc4n3)cc2)nc1OCC
18,85 to 88 °C,Brc1ccc2ccn(Cc3ccccc3)c2c1
19,265 °C,CNc1ccc2c(c1N)C(=O)OC21c2cc(F)c(O)cc2Oc2cc(O)c(F)cc21
20,125 °C,COc1nc(OC)nc(N(C(=O)Oc2ccccc2)C(=O)Oc2ccccc2)n1
21,85 to 91 °C,Cc1nc(-c2ccc(C(C)(C)C)cc2)sc1C(=O)N[C@H](C)[C@](O)(Cn1cncn1)c1ccc(F)cc1F
22,65 to 66 °C,CCCCCCCCCC(O)C#CC(=O)O (centres undefined)
23,155 °C,O=C(c1ccccc1[N+](=O)[O-])N1CCCc2ccccc21
24,184 °C,CNC(=O)c1cccc(Nc2nc(Nc3ccc4c(c3)C(C)(C)CCC(=O)N4)ncc2Cl)c1

row,melting point,SMILES
1,144 to 145 °C,O=C(CN1CCCCC1)Nc1ccc([N+](=O)[O-])cc1
2,245 °C,Cc1nc(CN2CCc3sc(Nc4ncc(F)cn4)nc3-c3c[nH]nc32)no1
3,> 250 °C,COc1cc2c(cn1)OCC21C(=O)N(CC2CCCO2)c2ccccc21 (centres undefined)
4,232 to 234 °C,O=c1[nH]c(CCN2CCN(c3ccccc3)CC2)c(-c2ccc(F)cc2)[nH]1
5,230 to 235 °C,COc1cc2oc(=O)c(CCCl)c(C)c2cc1O
6,176 to 177 °C,CCOCCc1c(-c2ccc(OC)cc2)nc(N)n2ncnc12
7,183 to 184 °C,COC(=O)C1=C(C)NC(C)=C(C(C)=O)C1c1ccccc1Cl (centres undefined)
8,> 270 °C,NC(Cc1ccc(O)cc1)CN1CCN(c2ccccc2)CC1 (centres undefined)
9,215 to 216 °C,COc1ccc(-c2c(NCC(C)c3ccccc3)c(=O)c2=O)cc1 (centres undefined)
10,129 to 131 °C,N#CCCNC(=O)C1=CC(CF)(CF)Oc2ccc(C(F)(F)F)cc21
11,114 to 116 °C,O=C(C1NCCc2sccc21)N1CCCC1 (centres undefined)
12,52 to 53 °C,CCOC(=O)c1ccc(OCCCCCCCCC#CCCCCOc2ccc(Cl)cc2)cc1
13,57 to 61 °C,COc1cc(/C=C/CCO)ccc1OCc1ccccc1
14,137 to 141 °C,Cc1ncsc1C(=O)Nc1ccc(-n2nc(C(F)(F)F)cc2C2CC2)cc1
15,191 to 192 °C,COc1c(Cl)ccc(-c2nc(OC)c3c(ncn3C)n2)c1F
16,134 to 136 °C,O=c1c2ccc(Cl)cc2n(Cc2ccccc2)n2c(Cl)ccc12
17,129 to 130 °C,COCc1ccc(-c2ncccc2S(=O)(=O)Nc2ncc(C)nc2OC)cc1
18,> 300 °C,Cc1ccc(-n2c(=O)c(O)nc3cccnc32)cc1
19,200 to 203 °C,Cc1cc(-c2ccc(F)cc2)ccc1C(=O)Nc1ccc2cc(CN3CCCC3)cnc2c1C
20,205 °C,Cc1ccc(S(=O)(=O)C(=CNc2ccc(Br)cn2)C(=O)c2ccccc2)cc1
21,104 to 106 °C,NC(=O)C1=CCNCC1
22,164 °C,Nc1[nH]c(=O)c(C(=O)CCC2CCN(CC3CCCCC3)CC2)cc1Cl
23,146 °C,CCOC(=O)c1c(O)c2ccsc2n(Cc2ccccc2)c1=O
24,207 to 208 °C,CCCn1cc(C(=O)O)c(=O)c2cc(C)sc21

row,melting point,SMILES
1,83 °C,CN1CCC(OC2c3cccc(Br)c3CCn3cc(-c4ccccc4)nc32)CC1 (centres undefined)
2,128 to 130 °C,O=C(NCCCc1ccncc1)N(CCC12CC3CC(CC(C3)C1)C2)Cc1ccco1
3,71.4 to 72.1 °C,"CCCCC1CCC(CC(=O)c2ccc(-c3ccc(CC(C)CC)cc3F)cc2)CC1 (single isomer, unassigned; (+))"
4,165 to 167 °C,CC(=C(C#N)C(N)=O)c1ccc(Cl)cc1
5,149 to 150 °C,CCOC(=O)/C=C/c1cn(CC)nc1OCc1ccc(OCc2nc(-c3ccco3)oc2C)c(OC)c1
6,106 °C,O=C(Cc1ccccc1)N1CC2CCC(C1)O2
7,98 to 100 °C,Cc1cc(C)c(C#N)c(-c2ccc(F)c(C)c2)c1
8,160 to 161 °C,CC(=O)c1cc(N2CCCC2)ccc1NC(=O)c1ccccc1OCc1ccccc1
9,71 to 73 °C,Cc1cc(Cl)nc(C=Cc2ccccc2)n1
10,241 to 243 °C,Oc1ncnc2c1CCOc1ccccc1-2
11,101 to 104 °C,CC(C)=CCn1c(N(C)C[C@@H](C)N)nc2c1c(=O)n(C)c(=O)n2C
12,158 to 159 °C,N#Cc1ccc(-c2cccc(C=O)n2)cc1
13,198 to 200 °C,NC(=O)CC[C@H](Nc1ccc(CC(=O)O)cc1)C(=O)O
14,136 to 138 °C,COc1c(CN2CCC(=O)C(C(c3ccccc3)c3ccccc3)C2)cc(C(C)(C)C)cc1C(C)(C)C (centres undefined)
15,238 to 240 °C,CNc1nc(=O)n(CCCN2CCN(C(c3ccccc3)c3ccccc3)CC2)c2ccccc12
16,116 to 118 °C,CN(CCOc1ccccc1C(N)=O)CCc1ccc([N+](=O)[O-])cc1
17,129 to 130 °C,CCCc1c(O)c(C(C)=O)cc(Br)c1OCCCOc1c(C(C)=O)ccc(OCC(=O)O)c1CCC
18,233 to 234 °C,CCOC(=O)c1cnn(-c2ccc(O)c(C#N)c2)c1
19,268 to 269 °C,O=C1OC(=O)c2cc3cccnc3c3cc([N+](=O)[O-])cc1c23
20,134 to 135 °C,COC(=O)c1cc2c3cc(Br)ccc3n(Cc3ccccc3)c2s1
21,42 to 44 °C,CCOC(=O)Oc1cc2c(s1)CCN([C@H](C(=O)OC)c1ccccc1Cl)C2
22,120 to 124 °C,CCOC(OCC)c1ncn(C(c2ccccc2)(c2ccccc2)c2ccccc2)n1
23,154 to 157 °C,CN(C)Cc1c(-c2ccc(OC(F)F)c(OC3CC3)c2)[nH]c2cn[nH]c(=O)c12

row,SMILES,melting point
1,N#Cc1ncn2c1[C@@H]1CCN1C(=O)c1cc(Cl)ccc1-2,258 to 261 °C
2,CCN1CCN(C(=O)Cc2ccc(I)cc2)CC1,81 to 83 °C
3,COc1ccc2c(c1)c(C(=O)OCc1ccccc1)nn2Cc1ccccc1,107 to 109 °C
4,CCCCCn1c2ccccc2c2cc(C(=O)OCC)ncc21,92 to 93 °C
